The subject of one series is BMP. Kind of series: BIAcore surface plasmon resonance with immobilized BMP-containing LUVs. The format is binding. The following applies: pH 4.5, L1 sensor chip. The method, then:
(§1) For preparation of LUVs a lipid mixture consisting of 10 mol % sphingomyelin, 50 mol % phosphatidylcholine, 20 mol % cholesterol and 20 mol % BMP dissolved in organic solvents, was dried under a stream of argon and rehydrated in Tris/HCl buffer (pH 7.4) (Kolzer et al., 2004). The mixture was freeze-thawed nine times in liquid nitrogen and then in an incubator at 37° C. After ultrasound bath for 15 min the mixture was passed 21 times through a polycarbonate membrane with a pore diameter of 100 nm. Surface plasmon resonance measurements were performed using a BIAcore 2000 system at 25° C. LUVs (total lipid concentration 0.1 mM) were immobilized on the surface of a L1 sensor chip (BIAcore) in PBS (loading buffer). The running buffer used was sodium acetate buffer (50 mM, pH 4.5). As a control, acid sphingomyelinase (0.2 μM, 60 μl in running buffer) was injected directly on the liposome surface. Response units between 4100 RU-5250RU were obtained. The protein of interest was injected in running buffer at a flow rate of 20 μl/min at the concentrations indicated. After injection a dissociation phase of 10 min was appended.
as §1, with “Surface Plasmon Resonance (BIAcore). For” for “For”, “7.4).” for “7.4) (Kolzer et al., 2004).”, “The protein of interest was injected in running buffer at a flow rate of 20 μl/min at the concentrations indicated. After injection a dissociation phase of 10 min was appended.” left out
A general note: SPR reads the build-up and loss of mass on a sensor chip optically.

The subject of series [1] is lysosomes of U-2-OS cells. The series is described as follows: Lysosomal integrity upon photo-oxidation (acridine orange and blue light). The format is cell-based, human. The following applies: for protection of lysosomes against photo-oxidation (lysosomal integrity): U-2-OS cells, recombinant protein 300 nM, 24 h. The protocol: Sub-confluent U-2-OS cells incubated with 2 μg/ml acridine orange for 15 min at 37° C. were washed, irradiated and analyzed in Hanks balanced salt solution complemented with 3% FCS. Cells for single cell imaging were selected from 8 pre-defined areas of each well in transmitted light-mode after which the same cells were immediately visualized and exposed to blue light from USH102 100 W mercury arc burner (Ushio electric) installed in a U-ULS100HG housing (Olympus) for 20 sec. Fluorescence microscopy was performed on Olympus IX-70 inverted microscope with a LCPlanF1×20 objective with NA=0.40. Loss of lysosomal pH gradient was quantified by counting the loss of intense red staining.
(§2) Assays for lysosomal integrity. Sub-confluent cells incubated with 2 μg/ml acridine orange for 15 min at 37° C. were washed, irradiated and analyzed in Hanks balanced salt solution complemented with 3% fetal calf serum. Cells for single cell imaging were selected from 8 pre-defined areas of each well in transmitted light-mode after which the same cells were immediately visualized and exposed to blue light from USH102 100 W mercury arc burner (Ushio electric) installed in a U-ULS100HG housing (Olympus) for 20 sec. Fluorescence microscopy was performed on Olympus IX-70 inverted microscope with a LCPlanF1×20 objective with NA=0.40. Loss of lysosomal pH gradient was quantified by counting the loss of intense red staining. A more elaborate method for assaying lysosomal integrity was developed to handle the larger lysosomal compartment of the various fibroblasts used in this study. Cells for single cell imaging were selected from 8 pre-defined areas of each well in transmitted light-mode after which the same cells were immediately and continuously exposed to 489 nm light from a 100 mW diode laser while laser scanning micrographs where captured every 330 ms on a Zeiss LSM LIVE DUO confocal system in two channels defined by bandpass filters for 495-555 nm (green) and LP650 nm (Red) light. The resulting timelapse movies where subsequently analysed by the integrated Zeiss LSM DUO software. The total and cytoplasmic (digitonin-extracted) cathepsin activities were measured in digitonin-treated samples using zFR-AFC (Enzyme System Products) probe as described in the art.

Series [2] concerns U-2-OS osteosarcoma cells. Kind of series: Cisplatin-induced apoptosis-like cell death (Hoechst 33342). The note with it: for protection of cells against cisplatin-induced lysosomal cell death: recombinant protein 300 nM 24 h, 25 μM cisplatin 24 h. The series is classed as cell-based, human. The protocol: Apoptosis-like cell death was assessed by staining the cells with 0.05 μg/ml Hoechst 33342 (Molecular Probes) and counting cells with condensed nuclei in an inverted Olympus IX-70 fluorescent Microscope (Filter U-MWU 330-385 nm). For each experiment a minimum of eight randomly chosen areas were counted.
Assays for cell viability. Cell density was assessed by the 3-(4,5-dimethylthiazole-2-y)-2,5-[…] (MTT, SIGMA-Aldrich) reduction assay essentially as described in the art. Apoptosis-like cell death was assessed by staining the cells with 0.05 μg/ml Hoechst 33342 (Molecular Probes) and counting cells with condensed nuclei in an inverted Olympus IX-70 fluorescent Microscope (Filter U-MWU 330-385 nm). For each experiment a minimum of eight randomly chosen areas were counted.

For the next series, the system named is POPC/BMP liposomes. Kind of series: Tryptophan fluorescence shift upon docking into POPC/BMP liposomes. The format is binding. The note with it: pH 6.0. The protocol:
The tryptophan fluorescence spectra (RFI) and liposome 900 light scattering (RSI) were analyzed in a HEPES buffer (20 mM HEPES, 0.1 mM EDTA, pH 7.4 or 6.0 as indicated) employing LUVs consisting of indicated lipids essentially as described previously. For the RFI, LUVs were added in 10 μM aliquots and spectra recorded after a 20 min stabilization period. For the RSI, recombinant proteins were added in 0.12 nmol aliquots.
Tryptophan fluorescence spectra and liposome 90° light scattering. The tryptophan fluorescence spectra (RFI) and liposome 900 light scattering (RSI) were analyzed in a HEPES buffer (20 mM HEPES, 0.1 mM EDTA, pH 7.4 or 6.0 as indicated) employing LUVs consisting of indicated lipids essentially as described in the art. For the RFI, LUVs were added in 10 μM aliquots and spectra recorded after a 20 min stabilization period. For the RSI, recombinant proteins were added in 0.12 nmol aliquots.

Another series concerns HSPs, including Hsp70. The note with it: cited from earlier work.
For series [3], the system named is lysosomes of NPDA patient fibroblasts. The series is described as follows: Lysosomal stability of NPDA fibroblasts (photo-oxidation, live single-cell imaging). The following applies: NPDA Götz cells, 40 mM. The format is cell-based, human. The method, then: as §2
The test system of the next series is Hsp70. The series is described as follows: Hsp70 protein expression by western blotting in NPDA cells. The format is cell-based, human. The following applies: NPDA Götz cells, 0, 20, 30, 35, 40, 45 mM. The protocol: It is shown in Examples 2 and 3 that Hsp70 has a lysosome stabilizing effect via an interaction with BMP. In order to evaluate if this effect is also observed when exposing cells to a chemical Hsp70 inducer, Niemann-Pick Type A (NPDA) patient fibroblasts were treated with the small molecule Hsp70 inducer; Benzyl Alcohol (BA). First, NPDA cells were treated with increasing doses of BA (0, 20, 30, 35, 40, 45 mM), lysed, and analysed by western blotting. The same amount of protein was loaded in each well. […] Next, the stability of NPDA Götz lysosomes after treatment with 40 mM BA was evaluated, using the same methods as described in Example 2. […] Finally, the lysosomal cross-sectional area in NPDA Götz cells after treatment with 40 mM BA was evaluated, using the same methods as described in Example 2.

In another series the test system is NPDA fibroblasts. The series is described as follows: Lysosomal area of confocal cross sections, NPDA fibroblasts. The format is cell-based, human. The following applies: for pathology measured by lysosomal cross-sectional area: NPDA Götz cells, 40 mM. From the text: Immunodetection and microscopy. Primary antibodies used included mouse monoclonal antibodies against Hsp70 (2H9; kindly provided by Boris Margulis, Russian Academy of Sciences, St. Petersburg, Russia), glyceraldehyde-3-phosphate dehydrogenase (GAPDH; Biogenesis), BMP (6C4), lysosomal integral membrane protein-1 (H5C6; developed by J. Thomas August and James E. K. Hildreth and obtained from the Developmental Studies Hybridoma Bank developed under the auspices of the NICHD and maintained by The University of Iowa, Department of Biological Sciences, Iowa City, USA). Proteins separated by 10% SDS-PAGE and transferred to a nitrocellulose membrane were detected by using indicated primary antibodies, appropriate peroxidase-conjugated secondary antibodies from Dako, ECL Western blotting reagents (Amersham), and Luminescent Image Reader (LAS-1000Plus, Fujifilm). For immunocytochemistry Alexa […] or Alexa Fluor®-488-conjugated secondary antibodies were used. Lysotracker Red® was used for live visualization of the lysosomal compartment. Fluorescence images were taken using a Zeiss Axiovert 100M laser scanning microscope. Lysotracker quantification and timelapse movies for lysosomal integrity were done on a Zeiss LSM LIVE DUO system.

The nature of series [4]: Folding and chaperone function of rHsp70 mutant (circular dichroism, luciferase folding, ATP hydrolysis). The format is biochemical. On the technique in general: CD spectra are sensitive to the conformation of chiral molecules.

Entries after “also recorded” stand apart in the source; their conditions may differ.

Take “rHsp70-W580F: rHsp70 point mutant, tryptophan 580 substituted with phenylalanine”: in the series on BMP, the “interaction with BMP-containing LUVs (BIAcore)” value is “essentially the same interaction profile as rHsp70”. In addition, the “protection of lysosomes against photo-oxidation (lysosomal integrity)” value (“protection of lysosomes” below) in [1] is on record as “same efficacy as the wild-type protein; also recorded: same protective effect as the wild-type protein”. Besides, in series [2], the “protection of cells against cisplatin-induced lysosomal cell death” value is recorded as “same efficacy as the wild-type protein; also recorded: same protective effect as the wild-type protein”. In addition, the “relative peak fluorescence intensity (tryptophan fluorescence shift)” value in the series with POPC/BMP liposomes is recorded as “unchanged signal”.

For `[O-][n+]1cccc(C(Cl)=NOC[C@H](O)CN2CCCCC2)c1` [BRX-345], in the series on HSPs, including Hsp70, the “induction or co-induction of HSPs / heat shock response” value was “somewhat lesser ability to induce HSPs”.

As to `N.N.[Cl][Pt][Cl]` [cisplatin, reference compound], in series [2] (U-2-OS cells), the lysosomal membrane permeabilization entry was “induces an early lysosomal membrane permeabilization”.

For `OCc1ccccc1` [Benzyl Alcohol], the figures for the stability of lysosomes entry in series [3] and in series [3] (listed as BA) were “Increased stability of NPDA Götz lysosomes” and “increased lysosomal stability”, respectively. The figures for the Hsp70 protein expression entry in the series on Hsp70 and with Hsp70 (listed as BA) were “Induction of Hsp70 in NPDA Götz by Benzyl alcohol in a dose-dependent manner” and “induced Hsp70 expression in a dose-dependent manner”, respectively. The “pathology measured by lysosomal cross-sectional area” value in the series on NPDA fibroblasts is “Decreased pathology”; in the series on NPDA fibroblasts (listed as BA), “decreased pathology”.

As to “Hsc70: recombinant Hsc70, 86% amino acid sequence homology with Hsp70”, the “protection of lysosomes” value in series [1] is “no protection; also recorded: no lysosomal stabilization”.

Consider `O=C(O)/C=C\C(=O)O.OC(CON=C(Cl)c1cccnc1)CN1CCCCC1` (centres unmarked) [Bimoclomol, [2-hydroxy-3-(1-piperidinyl)propoxy]-3-pyridine-carboximidoyl-chloride maleate], for which the “induction or co-induction of HSPs / heat shock response” value with HSPs, including Hsp70 is given as “capability of Hsp70 co-induction in the absence of unfolded proteins”.

For “5′-GCCAUGACGAAAGACAACAAUCUGU-3′ (other strand not given here) [Hsp70 siRNA, siRNA targeting the two genes encoding Hsp70, reference compound]”, in series [1] (U-2-OS cells, siRNA 48 h; listed as siRNA) specific for Hsp70), the “sensitization of lysosomes to photo-oxidation by siRNA” value is recorded as “sensitized lysosomes of U-2-OS cells to photo-oxidation; also recorded: sensitized the lysosomes to photo-oxidation”.

For the compound “rHsp70-W90F: rHsp70 point mutant, tryptophan 90 substituted with phenylalanine”, the “interaction with BMP-containing LUVs (BIAcore)” value in the series with BMP was “dramatically decreased; also recorded: specifically abolished the interaction between rHsp70 and BMP”. The “protection of lysosomes” value in [1] was “completely lost its ability to protect the lysosomal membranes against photo-oxidation”. Besides, in [4], the “luciferase folding and ATP hydrolysis” value is “capable of folding luciferase and hydrolyzing ATP”. Besides, in series [2], the “protection of cells against cisplatin-induced lysosomal cell death” value is listed as “completely lost its ability”. Besides, in the series with POPC/BMP liposomes, the “relative peak fluorescence intensity (tryptophan fluorescence shift)” value is “reduction of the signal”. The “lysosomal area / volume of the lysosomal compartment” value in the series with NPDA fibroblasts (NPDA fibroblasts, 24 h, 300 nM rHsp70 or W90F, 150 nM rASM or combination) is reported as “effect comparable to control cells”.

As for `[O-][n+]1cccc(/C(Cl)=N/OC[C@H](O)CN2CCCCC2)c1` [Arimoclomol], the “induction or co-induction of HSPs / heat shock response” value in the series on HSPs, including Hsp70 is “interacts with and amplifies the heat shock response”.

On to “Hsp70-2: recombinant Hsp70-2, 84% amino acid sequence homology with Hsp70”, for which the “protection of lysosomes” value in series [1] is reported as “no protection; also recorded: no lysosomal stabilization”.

The values are drawn from patent US11938125B2, “Use of Hsp70 as a regulator of enzymatic activity” (Zevra Denmark A/S, priority 2008, dated 2024).
